Experimental data taken from patent publication US20240239811A1, “5-(5-(PIPERIDIN-4-YL)THIENO[3,2-C]PYRAZOL-2-YL]INDAZOLE DERIVATIVES AND RELATED COMPOUNDS AS MODULATORS FOR SPLICING NUCLEIC ACIDS AND FOR THE T” (REMIX THERAPEUTICS INC., priority 2020, published 2024).

How the values were obtained:
Assay type in all cases: cell-based
[1] = tested on: HTT mRNA; experiment: Splicing assay (RT-qPCR) monitoring HTT splice variants, canonical (CJ) and alternative (AJ) junction; settings: 50% response, A673 or K562 cell line, 24 hours; for IC50: decrease in CJ mRNA; for AC50: increase in AJ mRNA
Procedure, shortened: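 A673 or K562 cells were treated 24 h with an 11-point 3-fold dilution series (top 10 uM, ≤0.25% DMSO) at 37 °C. HTT canonical- and alternative-junction mRNAs were quantified in lysates by one-step RT-qPCR. Values were normalized to PPIA (A673) or GAPDH/GUSB (K562).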

[2] = tested on: HTT CJ mRNA; experiment: Gene panel canonical junction qPCR assay, HTT; settings: Table 6, decrease in CJ mRNA, read-out: HTT IC50 (decrease in CJ mRNA levels)
Procedure, shortened: (§1)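 A673 or K562 cells treated 24 h at 37° C with 11-point 3-fold dilutions, top 10 uM, DMSO ≤0.25%. CJ mRNA quantified by RT-qPCR with exon-junction-spanning probeset, ΔΔCt vs housekeeping gene (GAPDH, GUSB or PPIA) and DMSO control. IC50 from 4-parameter fit of percentage CJ decrease.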

[3] = tested on: SMN2 CJ mRNA; experiment: Gene panel canonical junction qPCR assay, SMN2; settings: Table 6, decrease in CJ mRNA, read-out: SMN2 IC50 (decrease in CJ mRNA levels)
Procedure, shortened: as §1

[4] = tested on: Target C CJ mRNA; experiment: Gene panel canonical junction qPCR assay, Target C; settings: Table 6, decrease in CJ mRNA, read-out: Target C IC50 (decrease in CJ mRNA levels)
Procedure, shortened: as §1

Row | SMILES | IC50 [1] [nM] | AC50 [1] [nM] | IC50 [2] [nM] | IC50 [3] [nM] | IC50 [4] [nM]
1 | COc1c(-c2nc3sc(C4CCNCC4)cc3s2)cc(F)c2nn(C)cc12 [Compound 237, 7-fluoro-4-methoxy-2-methyl-5-[5-(piperidin-4-yl)thieno[2,3-d][1,3]thiazol-2-yl]indazole] | > 10000 | > 10000 | > 10000 | > 10000 | > 10000
2 | Cc1cc(-c2nc3sc(C4CCNCC4)cc3s2)cc2cn(C)nc12 [Compound 238, 2,7-dimethyl-5-[5-(piperidin-4-yl)thieno[2,3-d][1,3]thiazol-2-yl]indazole] | < 100 | < 100 | < 100 | < 100 | 100 to 1000
